Experimental findings from patent publication US12247033B2, “Triazole-substituted imidazo[1,2-a]pyrimidines as cGAS inhibitors” (GlaxoSmithKline Intellectual Property Development Limited, priority 2022, dated 2025) are described below.

For one test, the target named is human CGAS (157-522) (Homo sapiens, UniProt Q8N884). As to the kind of experiment: biochemical.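 Also: biochemical enzyme reaction, 2′3′-cGAMP product measured by RapidFire mass spectrometry (MRM) normalised to c-di-UMP internal standard, inhibition of product formation relative to high and low control wells.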
Sequence of human CGAS (157-522) (Q8N884 157-522): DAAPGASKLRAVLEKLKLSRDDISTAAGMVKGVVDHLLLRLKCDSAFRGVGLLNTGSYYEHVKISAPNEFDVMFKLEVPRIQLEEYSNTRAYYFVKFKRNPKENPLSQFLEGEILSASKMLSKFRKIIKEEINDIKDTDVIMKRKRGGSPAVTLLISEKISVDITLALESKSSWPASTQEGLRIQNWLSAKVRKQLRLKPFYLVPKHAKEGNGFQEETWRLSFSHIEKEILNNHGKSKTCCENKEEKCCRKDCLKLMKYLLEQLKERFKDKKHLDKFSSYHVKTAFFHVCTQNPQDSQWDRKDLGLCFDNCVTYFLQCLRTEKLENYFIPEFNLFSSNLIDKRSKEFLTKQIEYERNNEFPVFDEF
A further test relates to CGAS. As to the kind of experiment: CGAS whole blood cytokine release assay (384-well, BacMam stimulation, IP-10 by cytometric bead array). It is filed as cell-based. The conditions noted are these: Homo sapiens, 6 h; read-out: hWB pXC50 (converted). Summed up: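 Heparinised human donor whole blood mixed with serially diluted compound plus Null BacMam stimulus, incubated 6 h at 37° C, 5% CO2. Supernatant IP-10 quantified by cytometric bead array on flow cytometer (488 nm excitation, 585/40 nm emission); inhibition of IP-10 calculated.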

Where a name gives a salt, the structure may show the parent alone.

Description for human CGAS (157-522): Compounds were serially diluted 2, 3, or 4-fold in neat DMSO to generate 11-point dose response curves and then 250 nL compound or DMSO solution was transferred to Greiner 384-well V-bottom assay plates (Catalog #781280) using an Echo acoustic dispenser (Labcyte). A solution of 150 μM ATP, 150 μM GTP, 20 μM pppGpA (GTP-2′5′-AMP, custom synthesis from ChemGenes), and 10 μg/mL sheared salmon sperm DNA (Sigma, Catalog #D1626) in assay buffer (20 mM Trizma, pH 7.5, 10 mM magnesium chloride, 0.3 mM CHAPS, and 0.01% (w/v) bovine serum albumin) was added to columns 1-17, 19-24 of the plate at 12.5 μL/well using a Combi liquid handler (ThermoFisher). A 12.5 μL/well low control solution containing 150 μM ATP, 150 μM GTP, 20 μM pppGpA in assay buffer was added to column 18 using the Combi. A 12.5 μL/well solution of 10-100 nM human CGAS (157-522) in assay buffer was then added to all wells of the plate using the Combi. […] Reactions were quenched by added 50 μL/well of 0.5% (v/v) trifluoroacetic acid (TFA) in mass spectrometry grade deionized water containing 5 μM cyclic-di-UMP (ci-di-UMP; Invivogen Catalog #tlrl-cdu) as the internal standard (IS). Plates were centrifuged for 1 min and then quenched reactions were analyzed using a RF-MS 300 system operating in a Multiple Reaction Monitoring (MRM) detection mode.
Samples (10 μL injection volume) were passed over a silica C18/type C solid phase extraction (SPE) cartridge for analyte (2′3′-cyclic guanosine monophosphate adenosine monophosphate (2′3′-cGAMP), product of biochemical reaction)/pppGpA/c-di-UMP IS adsorption. Adsorbed samples were desalted for 3000 ms using a 100% water eluent A/desalting solution. Afterwards, desalted samples were eluted using a 0.5% TFA in 20%/80% acetonitrile/water eluent B/elution solution directly into either a Sciex 4000, 5000 or 5500 triple quadrupole mass spectrometer (QQQ-MS) for MRM analyte/IS detection. QQQ-MS detection conditions were as follow: scan type: MRM; curtain (CUR) gas: 30 psi; nebulizer (GS1) gas: 50 psi; drying (GS2) gas: 60 psi; collisionally activated dissociation (CAD) gas: 12 relative setting; precursor ion (Q1) masses: 2′3′-cGAMP: m/z 675.1 Da/pppGpA: m/z 853.0 Da/c-di-UMP: m/z 613.1 Da; fragment ion (Q3) masses: 2′3′-cGAMP: m/z 524.1 Da/pppGpA: m/z 702.0 Da/c-di-UMP: 307.1 Da; declustering potentials (DPs): 2′3′-cGAMP: +81 V/pppGpA: +85 V/c-di-UMP: +85 V; entrance potential: +10 V (all analytes); collision energies (CEs): 2′3′-cGAMP: +33 V/pppGpA: +36 V/c-di-UMP: +35 V; collision cell exit potential (CXP): +10 V (all analytes); interface heater (Sciex 4000/5000 only): on; Q1 resolution: unit (all analyte); Q3 resolution: unit (all analytes). The area under the curve (AUC) for all analytes was obtained using the RapidFire Integrator software application to calculate AUC-2′3′-cGAMP/AUC-c-di-UMP intensity ratio. Percent product formation was calculated by comparison to column 6 (high control)/column 18 (low control) responses. The % product inhibition was calculated as follows:
[formula] where A is the minimum response, B is the maximum response, C is the log10*XC50, D is the slope factor, and x is the log10 compound concentration [M] in ABASE XE.

Consider `CCOCCOCc1cnc2nc(-c3nc(C(F)(F)F)n[nH]3)c(-c3cnc[nH]3)n2c1` [Example 129, 5-{6-[(2-ethoxyethoxy)methyl]-3-(1H-imidazol-5-yl)imidazo[1,2-a]pyrimidin-2-yl}-3-(trifluoromethyl)-1H-1,2,4-triazole], for which the IC50 was 7.94 nM against human CGAS (157-522) and 316 nM in the test on CGAS.

With `FC(F)(F)c1n[nH]c(-c2nc3ncc(COCCC4CCCO4)cn3c2-c2cnc[nH]2)n1` (stereo not shown) [Example 141, 5-[3-(1H-imidazol-5-yl)-6-{[2-(oxolan-2-yl)ethoxy]methyl}imidazo[1,2-a]pyrimidin-2-yl]-3-(trifluoromethyl)-1H-1,2,4-triazole], the IC50 against human CGAS (157-522) is 3.98 nM; with CGAS it was 316 nM.

Consider `FC(F)CN1CC(Oc2cnc3nc(-c4nc(C(F)(F)F)n[nH]4)c(-c4cnc[nH]4)n3c2)C1` [Example 162, 5-(6-{[1-(2,2-difluoroethyl)azetidin-3-yl]oxy}-3-(1H-imidazol-5-yl)imidazo[1,2-a]pyrimidin-2-yl)-3-(trifluoromethyl)-1H-1,2,4-triazole], for which the IC50 is 7.94 nM on human CGAS (157-522) and 1000 nM in the test on CGAS.

For the compound `FC(F)(F)c1n[nH]c(-c2nc3nc4c(cn3c2-c2cnc[nH]2)CCC4)n1` [Example 133, 12-(1H-imidazol-5-yl)-11-[3-(trifluoromethyl)-1H-1,2,4-triazol-5-yl]-1,8,10-triazatricyclo[7.3.0.0^3,^7]dodeca-2,7,9,11-tetraene], the IC50 is 3.16 nM on human CGAS (157-522) and 200 nM in the test with CGAS.

With `CC(COCc1cnc2nc(-c3nc(C(F)(F)F)n[nH]3)c(-c3c[nH]cn3)n2c1)n1ccnc1` (stereo not shown) [Example 143, 5-(6-{[2-(1H-imidazol-1-yl)propoxy]methyl}-3-(1H-imidazol-4-yl)imidazo[1,2-a]pyrimidin-2-yl)-3-(trifluoromethyl)-1H-1,2,4-triazole], the IC50 at human CGAS (157-522) is 3.98 nM; in the test with CGAS, 2510 nM.

For the compound `CCOCc1cn2c(-c3cnc[nH]3)c(-c3nc(C(F)F)n[nH]3)nc2nc1C(F)(F)F` [Example 117, 3-(difluoromethyl)-5-[6-(ethoxymethyl)-3-(1H-imidazol-5-yl)-7-(trifluoromethyl)imidazo[1,2-a]pyrimidin-2-yl]-1H-1,2,4-triazole], the IC50 against human CGAS (157-522) is 6.31 nM; in the test with CGAS it was 3160 nM.

In the case of `FC(F)(F)c1n[nH]c(-c2nc3ncc(OC4CCOC4)cn3c2-c2cnc[nH]2)n1` (stereo not shown) [Example 161, 5-[3-(1H-imidazol-5-yl)-6-(oxolan-3-yloxy)imidazo[1,2-a]pyrimidin-2-yl]-3-(trifluoromethyl)-1H-1,2,4-triazole], the IC50 against human CGAS (157-522) was 5.01 nM; in the test on CGAS, 251 nM.

As to `Nc1ccn2c(-c3cnc[nH]3)c(-c3nc(C(F)(F)F)n[nH]3)nc2n1` [Example 107, 3-(1H-imidazol-5-yl)-2-[3-(trifluoromethyl)-1H-1,2,4-triazol-5-yl]imidazo[1,2-a]pyrimidin-7-amine], the IC50 against human CGAS (157-522) was 2.51 nM; in the test on CGAS it was 631 nM.

On to `FC(F)(F)c1n[nH]c(-c2nc3nc(Cl)ccn3c2-c2cnc[nH]2)n1` [Example 7, 5-[7-chloro-3-(1H-imidazol-5-yl)imidazo[1,2-a]pyrimidin-2-yl]-3-(trifluoromethyl)-1H-1,2,4-triazole, trifluoroacetic acid salt], for which the IC50 was 6.31 nM on human CGAS (157-522) and 1580 nM with CGAS.

Regarding `OCC(F)(F)c1ccn2c(-c3cnc[nH]3)c(-c3nc(C(F)(F)F)n[nH]3)nc2n1` [Example 6, 2,2-difluoro-2-[3-(1H-imidazol-5-yl)-2-[3-(trifluoromethyl)-1H-1,2,4-triazol-5-yl]imidazo[1,2-a]pyrimidin-7-yl]ethan-1-ol], the IC50 against human CGAS (157-522) is 3.98 nM; with CGAS it was 501 nM.

As for `FC(F)(F)c1n[nH]c(-c2nc3nc4c(cn3c2-c2c[nH]cn2)COC4)n1` [Example 10, 12-(1H-imidazol-4-yl)-11-[3-(trifluoromethyl)-1H-1,2,4-triazol-5-yl]-5-oxa-1,8,10-triazatricyclo[7.3.0.0^3, ^7] dodeca-2,7,9,11-tetraene, 0.2 trifluoroacetic acid salt], the results for the IC50 at human CGAS (157-522) and with CGAS were 6.31 nM and 126 nM, respectively.

Regarding `COCc1cn2c(-c3cnc[nH]3)c(-c3nc(C(F)(F)F)n[nH]3)nc2nc1C(F)(F)F` [Example 114, 5-[3-(1H-imidazol-5-yl)-6-(methoxymethyl)-7-(trifluoromethyl)imidazo[1,2-a]pyrimidin-2-yl]-3-(trifluoromethyl)-1H-1,2,4-triazole], the IC50 is 3.98 nM against human CGAS (157-522) and 1000 nM in the test on CGAS.

For the compound `Fc1cnc2nc(-c3nc(C(F)F)n[nH]3)c(-c3c[nH]cn3)n2c1` [Example 5, 3-(difluoromethyl)-5-[6-fluoro-3-(1H-imidazol-4-yl)imidazo[1,2-a]pyrimidin-2-yl]-1H-1,2,4-triazole], the IC50 at human CGAS (157-522) is 2.51 nM; with CGAS it was 200 nM.

In the case of `CCOc1cnc2nc(-c3nc(C(F)(F)F)n[nH]3)c(-c3cnc[nH]3)n2c1` [Example 163, 5-[6-ethoxy-3-(1H-imidazol-5-yl)imidazo[1,2-a]pyrimidin-2-yl]-3-(trifluoromethyl)-1H-1,2,4-triazole], the figures for the IC50 on human CGAS (157-522) and in the test on CGAS were 10 nM and 794 nM, respectively.

For `FC(F)(F)c1n[nH]c(-c2nc3nc(C(F)(F)F)c(Cl)cn3c2-c2cnc[nH]2)n1` [Example 128, 5-[6-chloro-3-(1H-imidazol-5-yl)-7-(trifluoromethyl)imidazo[1,2-a]pyrimidin-2-yl]-3-(trifluoromethyl)-1H-1,2,4-triazole], the IC50 against human CGAS (157-522) is 12.6 nM; in the test on CGAS it was 3160 nM.

For the compound `CC(O)c1ccn2c(-c3cnc[nH]3)c(-c3nc(C(F)(F)F)n[nH]3)nc2n1` (stereo not shown) [Example 13, 1-[3-(1H-imidazol-5-yl)-2-[3-(trifluoromethyl)-1H-1,2,4-triazol-5-yl]imidazo[1,2-a]pyrimidin-7-yl]ethan-1-ol], the values for the IC50 against human CGAS (157-522) and in the test on CGAS were 10 nM and 1000 nM, respectively.

`FC(F)(F)c1n[nH]c(-c2nc3ncc(COCCC4COCCO4)cn3c2-c2c[nH]cn2)n1` (stereo not shown) [Example 145, 5-(6-{[2-(1,4-dioxan-2-yl)ethoxy]methyl}-3-(1H-imidazol-4-yl)imidazo[1,2-a]pyrimidin-2-yl)-3-(trifluoromethyl)-1H-1,2,4-triazole]: the results for the IC50 against human CGAS (157-522) and in the test with CGAS were 10 nM and 1000 nM, respectively.

For the compound `Brc1n[nH]c(-c2nc3nc4c(cn3c2-c2cnc[nH]2)CCO4)n1` [Example 57, 11-(3-bromo-1H-1,2,4-triazol-5-yl)-12-(1H-imidazol-5-yl)-6-oxa-1,8,10-triazatricyclo[7.3.0.0^3,^7]dodeca-2,7,9,11-tetraene], the IC50 on human CGAS (157-522) was 5.01 nM; in the test on CGAS it was 63.1 nM.

As to `CC(C)(C)C(=O)n1cnc(-c2c(-c3nc(C(F)(F)F)n[nH]3)nc3ncccn23)c1` [Example 81, 2,2-dimethyl-1-(4-{2-[3-(trifluoromethyl)-1H-1,2,4-triazol-5-yl]imidazo[1,2-a]pyrimidin-3-yl}-1H-imidazol-1-yl)propan-1-one], the IC50 against human CGAS (157-522) is 3.98 nM; in the test with CGAS, 158 nM.

In the case of `CC(=O)N1CCC(COCc2cnc3nc(-c4nc(C(F)(F)F)n[nH]4)c(-c4c[nH]cn4)n3c2)C1` (stereo not shown) [Example 149, 1-[3-({[3-(1H-imidazol-4-yl)-2-[3-(trifluoromethyl)-1H-1,2,4-triazol-5-yl]imidazo[1,2-a]pyrimidin-6-yl]methoxy}methyl)pyrrolidin-1-yl]ethan-1-one], the values for the IC50 against human CGAS (157-522) and in the test with CGAS were 10 nM and 10000 nM, respectively.
